Source: patent US10774085B2, “Method of treatment using substituted pyrazolo[1,5-A] pyrimidine compounds” (Array BioPharma Inc., priority 2008, dated 2020)

Biological target: histidine-tagged recombinant human TrkA, cytoplasmic domain (Homo sapiens (Human), UniProt P04629)
Assay: TrkA ELISA Assay
Type: biochemical
Details: 2.5 nM TrkA, 500 μM ATP; read-out: TrkA Elisa Enzyme IC50
Protocol: An enzyme-linked immunosorbant assay (ELISA) was used to assess TrkA kinase activity in the presence of inhibitors. Immulon 4HBX 384-well microtiter plates (Thermo part #8755) were coated with a 0.025 mg/mL solution of poly (Glu, Ala, Tyr; 6:3:1; Sigma P3899). Various concentrations of test compound, 2.5 nM TrkA (Invitrogen Corp., histidine-tagged recombinant human TrkA, cytoplasmic domain), and 500 μM ATP were incubated for 25 minutes at ambient temperature in the coated plates while shaking. The assay buffer consisted of 25 mM MOPS pH 7.5, 0.005% (v/v) Triton X-100 and 5 mM MgCl2. The reaction mixture was removed from the plate by washing with PBS containing 0.1% (v/v) Tween 20. The phosphorylated reaction product was detected using 0.2 μg/mL of a phosphotyrosine specific monoclonal antibody (clone PY20) conjugated to horseradish peroxidase in conjunction with the TMB Peroxidase Substrate System (KPL). After the addition of 1M phosphoric acid, the chromogenic substrate color intensity was quantitated via absorbance at 450 nm. IC50 values were calculated using either a 4 or 5-parameter logistic curve fit.

Sequence of histidine-tagged recombinant human TrkA, cytoplasmic domain (P04629 440-796): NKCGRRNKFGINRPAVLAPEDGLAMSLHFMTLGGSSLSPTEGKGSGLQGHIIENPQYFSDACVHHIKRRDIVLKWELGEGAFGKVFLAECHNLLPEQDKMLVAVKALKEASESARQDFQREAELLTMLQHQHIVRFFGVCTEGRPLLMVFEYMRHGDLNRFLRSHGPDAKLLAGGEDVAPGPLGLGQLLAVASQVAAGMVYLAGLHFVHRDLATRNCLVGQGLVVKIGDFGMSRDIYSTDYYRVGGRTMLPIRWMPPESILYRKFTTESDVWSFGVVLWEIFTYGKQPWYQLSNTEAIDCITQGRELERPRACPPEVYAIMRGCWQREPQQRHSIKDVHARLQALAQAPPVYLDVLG

IC50: 10.2 nM
SMILES: COc1ccc(F)cc1[C@H]1CCCN1c1ccn2ncc(NC(=O)N3CCC[C@H](O)C3)c2n1 [Example 91, (S)—N-(5-((R)-2-(5-fluoro-2-methoxyphenyl)pyrrolidin-1-yl)pyrazolo[1,5-a]pyrimidin-3-yl)-3-hydroxypiperidine-1-carboxamide]
